Source: patent publication US20100298141A1, “SUBSTITUTED PYRIDINE N-OXIDE HERBICIDES” (E. I. DU PONT DE NEMOURS AND COMPANY, priority 2007, published 2010)

How the values were obtained:
common ragweed = experiment: Test C pre-/postemergence test; type: in vivo, Ambrosia elation
In short: (§1)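 Seeds were planted and treated preemergence with test chemical in a non-phytotoxic solvent mixture containing surfactant. Postemergence applications of the same formulation went onto plants 2 to 18 cm tall (1- to 4-leaf stage). A dash marks no test result.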

redroot pigweed = experiment: Test A pre-/postemergence greenhouse test; type: in vivo, Amaranthus retroflexus; details: for Pigweed plant response rating: 0 to 100 scale; for Plant response rating, Pigweed: 0 to 100 scale where 0 is no effect and 100 is complete control
In short: (§2)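 Visual injury ratings, made relative to untreated controls roughly ten days after treatment, cover both preemergence and postemergence application. Compounds in a surfactant-containing non-phytotoxic solvent were sprayed onto the soil surface after sowing and, simultaneously, onto young plants at the one- to two-leaf stage.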

giant foxtail = experiment: Test C pre-/postemergence test; type: in vivo, Setaria faberii; details: for Plant response rating (0 to 100), Foxtail, Giant: 250 g ai/ha
In short: as §1

rice = experiment: Test C flooded paddy test; type: in vivo, Oryza sativa; details: Flood
In short: (§3)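 Visual injury ratings against untreated controls, taken 13 to 15 days after compound was added to paddy water standing 3 cm above the soil.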

eastern black nightshade = experiment: Test C pre-/postemergence test; type: in vivo, Solanum ptycanthum; details: for Plant response rating (0 to 100), Nightshade: 250 g ai/ha
In short: as §1

velvetleaf [1] = experiment: Test C pre-/postemergence test; type: in vivo, Abutilon theophrasti; details: for Velvetleaf plant response rating: preemergence, scale 0 (no effect) to 100 (complete control); for Plant response rating (0 to 100), Velvetleaf: Preemergence, 250 g ai/ha
In short: as §1

crabgrass = experiment: Test C pre-/postemergence test; type: in vivo, Digitaria sanguinalis; details: for Plant response rating (0 to 100), Crabgrass, Large: 250 g ai/ha
In short: as §1

barnyardgrass = experiment: Test A pre-/postemergence greenhouse test; type: in vivo, Echinochloa crus-galli; details: for Barnyardgrass plant response rating: 0 to 100 scale; for Plant response rating, Barnyardgrass: 0 to 100 scale where 0 is no effect and 100 is complete control
In short: as §2

johnsongrass = experiment: Test C pre-/postemergence test; type: in vivo, Sorghum halepense; details: for Plant response rating (0 to 100), Johnsongrass: 250 g ai/ha
In short: as §1

velvetleaf [2] = experiment: Test A pre-/postemergence greenhouse test; type: in vivo, Abutilon theophrasti; details: for Velvetleaf plant response rating: 0 to 100 scale; for Plant response rating, Velvetleaf: 0 to 100 scale where 0 is no effect and 100 is complete control
In short: as §2

green foxtail = experiment: Test C pre-/postemergence test; type: in vivo, Setaria viridis; details: for Plant response rating (0 to 100), Foxtail, Green: 250 g ai/ha
In short: as §1

kochia = experiment: Test C pre-/postemergence test; type: in vivo, Kochia scoparia; details: for Plant response rating (0 to 100), Kochia: 250 g ai/ha
In short: as §1

lambsquarters = experiment: Test C pre-/postemergence test; type: in vivo, Chenopodium album; details: for Plant response rating (0 to 100), Lambsquarters: 250 g ai/ha
In short: as §1

duck salad = experiment: Test C flooded paddy test; type: in vivo, Heteranthera limosa; details: Flood
In short: as §3

wild oat = experiment: Test C pre-/postemergence test; type: in vivo, Avena fatua; details: for Plant response rating (0 to 100), Oat, Wild: 250 g ai/ha
In short: as §1

downy brome = experiment: Test C pre-/postemergence test; type: in vivo, Bromus tectorum; details: for Plant response rating (0 to 100), Bromegrass, Downy: 250 g ai/ha
In short: as §1

Surinam grass = experiment: Test C pre-/postemergence test; type: in vivo, Brachiaria decumbens; details: for Surinam Grass plant response rating: preemergence, scale 0 (no effect) to 100 (complete control); for Plant response rating (0 to 100), Surinam Grass: Preemergence, 250 g ai/ha
In short: as §1

cocklebur = experiment: Test C pre-/postemergence test; type: in vivo, Xanthium strumarium; details: for Plant response rating (0 to 100), Cocklebur: 250 g ai/ha
In short: as §1

[3] = 31 g ai/ha, Preemergence, scale 0 to 100
[4] = 62 g ai/ha, preemergence, scale 0 (no effect) to 100 (complete control)
[5] = preemergence, 125 g ai/ha, scale 0 (no effect) to 100 (complete control)
[6] = Postemergence, 125 g ai/ha, 0 is no effect, 100 is complete control
[7] = Postemergence, 500 g ai/ha, 0 is no effect, 100 is complete control
[8] = Preemergence, 125 g ai/ha, 0 no effect, 100 complete control
[9] = 31 g ai/ha, scale 0 to 100 (0 no effect, 100 complete control)
[10] = 62 g ai/ha, scale 0 to 100, 0 no effect, 100 complete control, 13 to 15 days
[11] = 125 g ai/ha, scale 0 to 100, 0 no effect, 100 complete control, 13 to 15 days
[12] = 250 g ai/ha, scale 0 to 100 (0 no effect, 100 complete control)

Cc1cc[n+]([O-])c(S(=O)(=O)C(C)c2c(C(F)(F)F)nn(C)c2Cl)c1 (racemic) [Compound 14]
Ragweed plant response rating (common ragweed; [3]): 0
Ragweed plant response rating (common ragweed; [4]): 85
Plant response rating (0 to 100), Ragweed (common ragweed; Preemergence, 250 g ai/ha): 100
Ragweed plant response rating (common ragweed; [5]): 85
Pigweed plant response rating (redroot pigweed; [6]): 0
Pigweed plant response rating (redroot pigweed; [7]): 10
Pigweed plant response rating (redroot pigweed; [8]): 100
Plant response rating, Pigweed (redroot pigweed; Preemergence, 500 g ai/ha): 100
Foxtail, Giant plant response rating (giant foxtail; [3]): 85
Foxtail, Giant plant response rating (giant foxtail; [4]): 85
Plant response rating (0 to 100), Foxtail, Giant (giant foxtail; Preemergence): 100
Foxtail, Giant plant response rating (giant foxtail; [5]): 100
Plant response rating, Rice (rice; [9]): 0
Plant response rating, Rice (rice; [10]): 0
Plant response rating, Rice (rice; [11]): 60
Plant response rating, Rice (rice; [12]): 70
Nightshade plant response rating (eastern black nightshade; [3]): 80
Nightshade plant response rating (eastern black nightshade; [4]): 100
Plant response rating (0 to 100), Nightshade (eastern black nightshade; Preemergence): 100
Nightshade plant response rating (eastern black nightshade; [5]): 100
Velvetleaf plant response rating (velvetleaf [1]; 62 g ai/ha): 10
Plant response rating (0 to 100), Velvetleaf (velvetleaf [1]): 100
Velvetleaf plant response rating (velvetleaf [1]; 125 g ai/ha): 100
Crabgrass, Large plant response rating (crabgrass; [3]): 100
Crabgrass, Large plant response rating (crabgrass; [4]): 100
Plant response rating (0 to 100), Crabgrass, Large (crabgrass; Preemergence): 100
Crabgrass, Large plant response rating (crabgrass; [5]): 100
Barnyardgrass plant response rating (barnyardgrass; [6]): 30
Barnyardgrass plant response rating (barnyardgrass; [7]): 60
Barnyardgrass plant response rating (barnyardgrass; [8]): 80
Plant response rating, Barnyardgrass (barnyardgrass; Preemergence, 500 g ai/ha): 100
Johnsongrass plant response rating (johnsongrass; [3]): 45
Johnsongrass plant response rating (johnsongrass; [4]): 60
Plant response rating (0 to 100), Johnsongrass (johnsongrass; Preemergence): 100
Johnsongrass plant response rating (johnsongrass; [5]): 100
Velvetleaf plant response rating (velvetleaf [2]; [6]): 0
Velvetleaf plant response rating (velvetleaf [2]; [7]): 60
Velvetleaf plant response rating (velvetleaf [2]; [8]): 0
Plant response rating, Velvetleaf (velvetleaf [2]; Preemergence, 500 g ai/ha): 60
Foxtail, Green plant response rating (green foxtail; [3]): 90
Foxtail, Green plant response rating (green foxtail; [4]): 100
Plant response rating (0 to 100), Foxtail, Green (green foxtail; Preemergence): 100
Foxtail, Green plant response rating (green foxtail; [5]): 100
Kochia plant response rating (kochia; [3]): 0
Kochia plant response rating (kochia; [4]): 0
Plant response rating (0 to 100), Kochia (kochia; Preemergence): 100
Kochia plant response rating (kochia; [5]): 100
Lambsquarters plant response rating (lambsquarters; [3]): 30
Lambsquarters plant response rating (lambsquarters; [4]): 100
Plant response rating (0 to 100), Lambsquarters (lambsquarters; Preemergence): 100
Lambsquarters plant response rating (lambsquarters; [5]): 100
Plant response rating, Ducksalad (duck salad; [9]): 40
Plant response rating, Ducksalad (duck salad; [10]): 50
Plant response rating, Ducksalad (duck salad; [11]): 80
Plant response rating, Ducksalad (duck salad; [12]): 100
Oat, Wild plant response rating (wild oat; [3]): 0
Oat, Wild plant response rating (wild oat; [4]): 0
Plant response rating (0 to 100), Oat, Wild (wild oat; Preemergence): 75
Oat, Wild plant response rating (wild oat; [5]): 10
Bromegrass, Downy plant response rating (downy brome; [3]): 30
Bromegrass, Downy plant response rating (downy brome; [4]): 35
Plant response rating (0 to 100), Bromegrass, Downy (downy brome; Preemergence): 70
Bromegrass, Downy plant response rating (downy brome; [5]): 70
Surinam Grass plant response rating (Surinam grass; 62 g ai/ha): 85
Plant response rating (0 to 100), Surinam Grass (Surinam grass): 100
Surinam Grass plant response rating (Surinam grass; 125 g ai/ha): 95
Cocklebur plant response rating (cocklebur; [3]): 0
Cocklebur plant response rating (cocklebur; [4]): 0
Plant response rating (0 to 100), Cocklebur (cocklebur; Preemergence): 10
Cocklebur plant response rating (cocklebur; [5]): 10

Cn1nc(C(F)(F)F)c(C[S+]([O-])c2ccc(Br)c[n+]2[O-])c1OC(F)F (racemic) [Compound 16]
Ragweed plant response rating (common ragweed; [3]): 10
Ragweed plant response rating (common ragweed; [4]): 45
Ragweed plant response rating (common ragweed; [5]): 100
Pigweed plant response rating (redroot pigweed; [6]): 20
Pigweed plant response rating (redroot pigweed; [7]): 70
Pigweed plant response rating (redroot pigweed; [8]): 100
Plant response rating, Pigweed (redroot pigweed; Preemergence, 500 g ai/ha): 100
Foxtail, Giant plant response rating (giant foxtail; [3]): 80
Foxtail, Giant plant response rating (giant foxtail; [4]): 100
Plant response rating (0 to 100), Foxtail, Giant (giant foxtail; Preemergence): 100
Plant response rating, Rice (rice; [9]): 0
Plant response rating, Rice (rice; [10]): 0
Plant response rating, Rice (rice; [11]): 0
Plant response rating, Rice (rice; [12]): 0
Nightshade plant response rating (eastern black nightshade; [3]): 100
Nightshade plant response rating (eastern black nightshade; [4]): 100
Plant response rating (0 to 100), Nightshade (eastern black nightshade; Preemergence): 100
Nightshade plant response rating (eastern black nightshade; [5]): 100
Velvetleaf plant response rating (velvetleaf [1]; 62 g ai/ha): 100
Plant response rating (0 to 100), Velvetleaf (velvetleaf [1]): 100
Velvetleaf plant response rating (velvetleaf [1]; 125 g ai/ha): 100
Crabgrass, Large plant response rating (crabgrass; [3]): 80
Crabgrass, Large plant response rating (crabgrass; [4]): 98
Plant response rating (0 to 100), Crabgrass, Large (crabgrass; Preemergence): 100
Crabgrass, Large plant response rating (crabgrass; [5]): 100
Barnyardgrass plant response rating (barnyardgrass; [6]): 90
Barnyardgrass plant response rating (barnyardgrass; [7]): 100
Barnyardgrass plant response rating (barnyardgrass; [8]): 90
Plant response rating, Barnyardgrass (barnyardgrass; Preemergence, 500 g ai/ha): 100
Johnsongrass plant response rating (johnsongrass; [3]): 100
Johnsongrass plant response rating (johnsongrass; [4]): 100
Plant response rating (0 to 100), Johnsongrass (johnsongrass; Preemergence): 100
Johnsongrass plant response rating (johnsongrass; [5]): 100
Velvetleaf plant response rating (velvetleaf [2]; [6]): 50
Velvetleaf plant response rating (velvetleaf [2]; [7]): 90
Velvetleaf plant response rating (velvetleaf [2]; [8]): 80
Plant response rating, Velvetleaf (velvetleaf [2]; Preemergence, 500 g ai/ha): 100
Foxtail, Green plant response rating (green foxtail; [3]): 70
Foxtail, Green plant response rating (green foxtail; [4]): 70
Plant response rating (0 to 100), Foxtail, Green (green foxtail; Preemergence): 100
Foxtail, Green plant response rating (green foxtail; [5]): 70
Kochia plant response rating (kochia; [3]): 20
Kochia plant response rating (kochia; [4]): 100
Plant response rating (0 to 100), Kochia (kochia; Preemergence): 100
Kochia plant response rating (kochia; [5]): 100
Lambsquarters plant response rating (lambsquarters; [3]): 80
Lambsquarters plant response rating (lambsquarters; [4]): 90
Plant response rating (0 to 100), Lambsquarters (lambsquarters; Preemergence): 100
Lambsquarters plant response rating (lambsquarters; [5]): 100
Plant response rating, Ducksalad (duck salad; [9]): 0
Plant response rating, Ducksalad (duck salad; [10]): 0
Plant response rating, Ducksalad (duck salad; [11]): 0
Plant response rating, Ducksalad (duck salad; [12]): 0
Oat, Wild plant response rating (wild oat; [3]): 0
Oat, Wild plant response rating (wild oat; [4]): 70
Plant response rating (0 to 100), Oat, Wild (wild oat; Preemergence): 80
Oat, Wild plant response rating (wild oat; [5]): 75
Bromegrass, Downy plant response rating (downy brome; [3]): 20
Bromegrass, Downy plant response rating (downy brome; [4]): 50
Plant response rating (0 to 100), Bromegrass, Downy (downy brome; Preemergence): 60
Bromegrass, Downy plant response rating (downy brome; [5]): 55
Surinam Grass plant response rating (Surinam grass; 62 g ai/ha): 55
Plant response rating (0 to 100), Surinam Grass (Surinam grass): 100
Surinam Grass plant response rating (Surinam grass; 125 g ai/ha): 100
Cocklebur plant response rating (cocklebur; [3]): 0
Cocklebur plant response rating (cocklebur; [4]): 0
Plant response rating (0 to 100), Cocklebur (cocklebur; Preemergence): 0
Cocklebur plant response rating (cocklebur; [5]): 0
